One data set addresses T1, human GST-PIKFYVE (Homo sapiens, UniProt Q9Y2I7).
T1 construct: GST; purchased Carna biosciences 11-118
Description: ADP-Glo kinase assay, enzyme inhibition activity against human PIKFYVE (Carna biosciences). Type of data set: biochemical. Particulars: inhibitory activity at final compound concentration 10 nM; 1 hour at room temperature. Put shortly:
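Human GST-PIKFYVE (glutathione Sepharose-purified) was reacted with substrate and ATP for 1 h at room temperature in 50 mM MOPS, 1 mM DTT, pH 7.2, with compound at 10 nM final. ADP formed was read by ADP-Glo luminescence; inhibition was calculated against no-enzyme (100%) and no-compound (0%) controls.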
In general terms: ADP-Glo first removes unused ATP, then detects ADP through luciferase.

In a further data set the target is T2, PIKFYVE (Homo sapiens, UniProt Q9Y2I7).
T2 construct: host or cells: HEK293 (ATCC, CRL-1573)
T2 sequence (Q9Y2I7 whole entry): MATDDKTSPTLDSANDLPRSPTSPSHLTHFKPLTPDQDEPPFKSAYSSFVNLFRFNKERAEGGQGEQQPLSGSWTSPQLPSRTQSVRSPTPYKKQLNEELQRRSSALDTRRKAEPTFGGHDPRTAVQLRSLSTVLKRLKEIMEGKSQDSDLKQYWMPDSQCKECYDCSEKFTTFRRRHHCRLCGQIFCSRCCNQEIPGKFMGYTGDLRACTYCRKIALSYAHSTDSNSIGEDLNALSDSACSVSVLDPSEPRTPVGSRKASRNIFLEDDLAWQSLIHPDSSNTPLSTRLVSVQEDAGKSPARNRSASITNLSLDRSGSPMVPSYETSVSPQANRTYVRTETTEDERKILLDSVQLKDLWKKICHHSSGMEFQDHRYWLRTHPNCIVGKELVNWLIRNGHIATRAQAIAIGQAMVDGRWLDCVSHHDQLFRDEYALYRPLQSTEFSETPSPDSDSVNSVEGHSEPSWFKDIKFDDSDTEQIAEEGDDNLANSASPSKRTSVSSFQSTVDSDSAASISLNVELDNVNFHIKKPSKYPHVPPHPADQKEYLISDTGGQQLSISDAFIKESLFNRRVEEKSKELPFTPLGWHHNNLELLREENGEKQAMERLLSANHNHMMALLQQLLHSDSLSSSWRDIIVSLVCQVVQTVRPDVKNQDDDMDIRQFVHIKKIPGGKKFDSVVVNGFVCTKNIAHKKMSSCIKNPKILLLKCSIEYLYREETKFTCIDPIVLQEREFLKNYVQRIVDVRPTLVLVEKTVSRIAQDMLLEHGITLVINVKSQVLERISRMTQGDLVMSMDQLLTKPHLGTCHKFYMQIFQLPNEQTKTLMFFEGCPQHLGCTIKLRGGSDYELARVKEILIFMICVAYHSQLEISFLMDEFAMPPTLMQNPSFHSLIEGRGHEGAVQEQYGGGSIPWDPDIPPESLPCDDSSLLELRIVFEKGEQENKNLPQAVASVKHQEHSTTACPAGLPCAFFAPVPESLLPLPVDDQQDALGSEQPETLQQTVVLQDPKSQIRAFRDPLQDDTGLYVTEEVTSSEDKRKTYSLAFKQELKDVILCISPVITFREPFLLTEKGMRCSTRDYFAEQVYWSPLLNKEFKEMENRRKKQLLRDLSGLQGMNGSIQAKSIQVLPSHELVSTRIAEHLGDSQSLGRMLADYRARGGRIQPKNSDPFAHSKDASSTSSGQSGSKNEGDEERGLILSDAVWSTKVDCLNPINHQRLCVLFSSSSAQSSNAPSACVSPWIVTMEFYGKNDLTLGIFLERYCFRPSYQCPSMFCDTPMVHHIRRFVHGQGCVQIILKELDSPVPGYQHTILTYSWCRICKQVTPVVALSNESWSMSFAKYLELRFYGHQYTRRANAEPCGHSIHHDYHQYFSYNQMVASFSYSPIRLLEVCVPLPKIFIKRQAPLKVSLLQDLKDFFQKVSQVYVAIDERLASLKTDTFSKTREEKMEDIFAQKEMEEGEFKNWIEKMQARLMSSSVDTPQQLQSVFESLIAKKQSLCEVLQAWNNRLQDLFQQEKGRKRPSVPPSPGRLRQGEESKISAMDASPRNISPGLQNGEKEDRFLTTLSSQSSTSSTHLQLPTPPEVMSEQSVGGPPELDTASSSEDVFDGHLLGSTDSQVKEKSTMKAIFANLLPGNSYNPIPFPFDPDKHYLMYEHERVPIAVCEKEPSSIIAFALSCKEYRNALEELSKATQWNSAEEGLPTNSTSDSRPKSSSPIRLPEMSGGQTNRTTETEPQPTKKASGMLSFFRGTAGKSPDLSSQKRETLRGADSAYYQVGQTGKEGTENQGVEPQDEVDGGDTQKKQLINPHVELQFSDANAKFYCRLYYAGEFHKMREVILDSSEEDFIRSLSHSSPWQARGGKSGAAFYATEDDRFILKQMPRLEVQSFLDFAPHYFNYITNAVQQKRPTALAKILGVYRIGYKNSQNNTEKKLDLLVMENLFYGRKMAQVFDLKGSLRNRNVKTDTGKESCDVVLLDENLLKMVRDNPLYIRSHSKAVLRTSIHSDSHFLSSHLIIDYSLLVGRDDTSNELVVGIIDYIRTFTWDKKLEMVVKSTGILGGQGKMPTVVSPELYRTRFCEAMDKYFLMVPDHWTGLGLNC
The data set can be described thus: NanoBRET TE Intracellular Kinase Assay, interaction of PIKFYVE and compounds in HEK293 cells. Type of data set: cell-based. The note with it: IC50 class from BRET; HEK293 cells expressing PIKFYVE-NanoLuc; 2 hours incubation. The protocol: To predict the efficacy of the compounds according to Example on PIKFYVE in humans, the interaction between PIKFYVE and the compounds was tested using the HEK293 cell line derived from human embryonic kidney (ATCC, CRL-1573) via NanoBRETT TE Intracellular Kinase Assay Service of Carna biosciences Inc., (Japan). The evaluation method provided by Carna biosciences Inc., was shown below and the NanoBRET™ TE Intracellular Kinase Assay, K-8 Kit (Promega, CS1810C88) was used.
The HEK-293 cells cultured in Opti-MEM™ I Reduced Serum Medium (Thermo Fisher, 11058-021) were transfected with Transfection Carrier DNA (Promega, E4881), PIKFYVE-NanoLuc Fusion Vector (Promega, CS1810C225), and FuGENE HD Transfection Reagent (Promega, E2311) to produce cells expressing genes combining PIKFYVE and NanoLuc, followed by culturing 100 μl (2×10^5 cells/ml) each in 96-well plates (Corning, 3917).
10× compounds according to Examples or Comparative Examples prepared by concentration in 1× NanoBRET™ tracer reagent and DMSO were reacted in 96-well plates and incubated for 2 hours in a 37° C., 5% CO2 incubator.
After the reaction was completed, 3× Complete NanoBRET™ Nano-Glo Substrate solution was added to each well, and the reaction was allowed to run for 2-3 minutes at room temperature before BRET was measured using a GloMax Discover Multimode Microplate Reader (Promega).
A general note: BRET reads energy transfer from a luciferase to a nearby fluorophore.

Data set [1] is described as follows: Microsomal metabolic stability assay. Type of data set: in vitro ADME, human or CD1 male mouse. Particulars: Clint class; 1 μM compound, 0.5 mg/ml microsomes, NADPH, UDPGA, Alamethicin; species not given. The protocol:
The microsomal metabolic stability assay was performed using pooled human or CD1 male mouse interspecies microsomes. Supplemental cofactors (NADPH, UDPGA) and microsomal membrane pore-forming factor (Alamethicin) were added to promote cytochrome P450 (CYP), UGT reactivity to the target compound. Test compounds (1 μM incubation concentration) and microsomes (0.5 mg/ml incubation concentration) were diluted in 0.1 M phosphate buffer, pH 7.4, and incubated (37° C.). The reaction was initiated by the addition of NADPH (1 mM), UDPGA (1 mM) and Alamethicin (25 μg/mg). The incubation times were 0, 5, 15, 30, and 45 minutes, and at each time point, the reaction was terminated by adding acetonitrile containing internal standard (IS)(1:3 ratio). The plate was then sealed, centrifuged (3000 rpm, 20 min, 4° C.), and the supernatant was analyzed by LC-MS/MS. Hepatic extraction ratio values were calculated from the measured in vitro clearance and Intrinsic clearance (Clint) values were calculated from the assay results, and the respective Clint values were categorized into Low, Medium, and High categories based on the reference document (ref. Prostaglandins & other lipid mediators 136 (2018): 90-95).

Here are results for 21 compounds from patent US20250388582A1, “NOVEL BICYCLIC HETEROARYL COMPOUND AND USE THEREOF” (ILDONG PHARMACEUTICAL CO., LTD., priority 2022, published 2025).

In general, IC50 refers to the midpoint of a concentration-inhibition curve. Lower therefore signals greater potency in that assay.

T1 sequence (Q9Y2I7 whole entry): as above

Turning to `COc1cc(-n2cnc3c(N/N=C/c4cccc(C)c4)nc(N4CCOCC4)nc32)ccn1` [Example 101, (E)-4-(9-(2-methoxypyridin-4-yl)-6-(2-(3-methylbenzylidene)hydrazinyl)-9H-purin-2-yl)morpholine], the “ADP-Glo kinase assay (%, 10 nM)” value at human GST-PIKFYVE is given as 91.20%. For the same compound, the IC50 against PIKFYVE is no more than 10 nM. The Microsomal metabolic stability entry in data set [1] was “Low (Low <8.8,)”.

`Cc1cccc(/C=N/Nc2nc(N3CCOCC3)nc3c2ncn3-c2ccc(F)cn2)c1` [Example 149, (E)-4-(9-(5-fluoropyridin-2-yl)-6-(2-(3-methylbenzylidene)hydrazinyl)-9H-purin-2-yl)morpholine]: the “ADP-Glo kinase assay (%, 10 nM)” value on human GST-PIKFYVE was 83.75%. On PIKFYVE, this compound yielded an IC50 of no more than 10 nM. For the same compound, in data set [1], the Microsomal metabolic stability result was “Medium (Medium 8.8~48,)”.

Take `Cc1cccc(/C=N/Nc2nc(N3CCOCC3)nc3c2nc(C)n3-c2ccccc2)c1` [Example 165, (E)-4-(8-methyl-6-(2-(3-methylbenzylidene)hydrazinyl)-9-phenyl-9H-purin-2-yl)morpholine]: the “ADP-Glo kinase assay (%, 10 nM)” value on human GST-PIKFYVE is 73.72%. On PIKFYVE, this compound came in with an IC50 of 10 to 20 nM. The Microsomal metabolic stability result in data set [1] is reported as “medium”.

For `COc1cccc(-n2cnc3c(N/N=C/c4cccc(C)c4)nc(N4CCOCC4)nc32)c1` [Example 121, (E)-4-(9-(3-methoxyphenyl)-6-(2-(3-methylbenzylidene)hydrazinyl)-9H-purin-2-yl)morpholine], the “ADP-Glo kinase assay (%, 10 nM)” value at human GST-PIKFYVE stood at 92.33%. On PIKFYVE, this compound had an IC50 of no more than 10 nM. Besides, the Microsomal metabolic stability entry in data set [1] is recorded as “Medium (Medium 8.8~48,)”.

As to `Cc1cccc(/C=N/Nc2nc(N3CCOCC3)nc3c2ncn3-c2cccnc2)c1` [Example 96, (E)-4-(6-(2-(3-methylbenzylidene)hydrazinyl)-9-(pyridin-3-yl)-9H-purin-2-yl)morpholine], the “ADP-Glo kinase assay (%, 10 nM)” value on human GST-PIKFYVE turned out to be 85.95%. This compound also gave an IC50 against PIKFYVE of no more than 10 nM. Further, the Microsomal metabolic stability result in data set [1] was “Medium (Medium 8.8~48,)”.

As for `Cc1cccc(/C=N/Nc2nc(N3CCOCC3)nc3c2ncn3CC(=O)c2ccc[nH]2)c1` [Example 34, (E)-2-(6-(2-(3-methylbenzylidene)hydrazinyl)-2-morpholino-9H-purin-9-yl)-1-(1H-pyrrol-2-yl)ethan-1-one], the “ADP-Glo kinase assay (%, 10 nM)” value on human GST-PIKFYVE is listed as 74.72%. Besides, the Microsomal metabolic stability entry in data set [1] was “Medium (Medium 8.8~48,)”.

For `Cc1cccc(/C=N/Nc2nc(N3CCOCC3)nc3c2ncn3C2CN(S(C)(=O)=O)C2)c1` [Example 85, (E)-4-(6-(2-(3-methylbenzylidene)hydrazinyl)-9-(1-(methylsulfonyl)azetidin-3-yl)-9H-purin-2-yl)morpholine], on human GST-PIKFYVE, the “ADP-Glo kinase assay (%, 10 nM)” value was 70.06%. The Microsomal metabolic stability result in data set [1] is “Medium (Medium 8.8~48,)”.

In the case of `Cc1cccc(/C=N/Nc2nc(N3CCOCC3)nc3c2ncn3-c2cccc(O)c2)c1` [Example 131, (E)-3-(6-(2-(3-methylbenzylidene)hydrazinyl)-2-morpholino-9H-purin-9-yl)phenol], the “ADP-Glo kinase assay (%, 10 nM)” value at human GST-PIKFYVE stood at 91.40%. At PIKFYVE, the IC50 is no more than 10 nM.

Consider `Cc1cccc(/C=N/Nc2nc(N3CCOCC3)nc3c2ncn3-c2ccc(C#N)cn2)c1` [Example 146, (E)-6-(6-(2-(3-methylbenzylidene)hydrazinyl)-2-morpholino-9H-purin-9-yl)nicotinonitrile], for which the “ADP-Glo kinase assay (%, 10 nM)” value at human GST-PIKFYVE was found to be 79.77%. For the same compound, the IC50 against PIKFYVE was no more than 10 nM.

Consider `Cc1cccc(/C=N/Nc2nc(N3CCOCC3)nc3c2ncn3C2CCN(C(=O)c3ccncc3)CC2)c1` [Example 93, (E)-(4-(6-(2-(3-methylbenzylidene)hydrazinyl)-2-morpholino-9H-purin-9-yl)piperidin-1-yl)(pyridin-4-yl)methanone], for which, at human GST-PIKFYVE, the “ADP-Glo kinase assay (%, 10 nM)” value worked out at 66.78%. The same compound yielded an IC50 on PIKFYVE of 20 to 30 nM.

Consider `Cc1cccc(/C=N/Nc2nc(N3CCOCC3)nc3c2ncn3C2CCN(C(=O)c3ccccc3)CC2)c1` [Example 89, (E)-(4-(6-(2-(3-methylbenzylidene)hydrazinyl)-2-morpholino-9H-purin-9-yl)piperidin-1-yl)(phenyl)methanone], for which, on human GST-PIKFYVE, the “ADP-Glo kinase assay (%, 10 nM)” value was 76.44%. Further, on PIKFYVE, the IC50 lay in the range of 10 to 20 nM.

For the compound `Cc1cccc(/C=N/Nc2nc(N3CCOCC3)nc3c2ncn3CCc2cccnc2)c1` [Example 80, (E)-4-(6-(2-(3-methylbenzylidene)hydrazinyl)-9-(2-(pyridin-3-yl)ethyl)-9H-purin-2-yl)morpholine], the “ADP-Glo kinase assay (%, 10 nM)” value at human GST-PIKFYVE is 83.61%. On PIKFYVE, the IC50 is no more than 10 nM.

Turning to `Cc1cccc(/C=N/Nc2nc(N3CCOCC3)nc3c2ncn3-c2ccc(C)nc2)c1` [Example 110, (E)-4-(6-(2-(3-methylbenzylidene)hydrazinyl)-9-(6-methylpyridin-3-yl)-9H-purin-2-yl)morpholine], the “ADP-Glo kinase assay (%, 10 nM)” value at human GST-PIKFYVE turned out to be 88.60%. The compound also came in with an IC50 at PIKFYVE of no more than 10 nM.

For the compound `Cc1cccc(/C=N/Nc2nc(N3CCOCC3)nc3c2ncn3CC(=O)c2cccn2C)c1` [Example 30, (E)-1-(1-methyl-1H-pyrrol-2-yl)-2-(6-(2-(3-methylbenzylidene)hydrazinyl)-2-morpholino-9H-purin-9-yl)ethan-1-one], the “ADP-Glo kinase assay (%, 10 nM)” value on human GST-PIKFYVE is given as 76.90%. Moreover, at PIKFYVE, the 50% inhibitory concentration (IC50) lay in the range of 10 to 20 nM.

Take `Cc1cccc(/C=N/Nc2nc(N3CCOCC3)nc3c2ncn3-c2cccc(OC3CC3)c2)c1` [Example 125, (E)-4-(9-(3-cyclopropoxyphenyl)-6-(2-(3-methylbenzylidene)hydrazinyl)-9H-purin-2-yl)morpholine]: the “ADP-Glo kinase assay (%, 10 nM)” value on human GST-PIKFYVE turned out to be 65.27%. On PIKFYVE, this compound gave an IC50 of no more than 10 nM.

Take `COc1ccccc1-n1cnc2c(N/N=C/c3cccc(C)c3)nc(N3CCOCC3)nc21` [Example 124, (E)-4-(9-(2-methoxyphenyl)-6-(2-(3-methylbenzylidene)hydrazinyl)-9H-purin-2-yl)morpholine]: at human GST-PIKFYVE, the “ADP-Glo kinase assay (%, 10 nM)” value worked out at 87.81%. The IC50 on PIKFYVE is no more than 10 nM.

In the case of `Cc1cccc(/C=N/Nc2nc(N3CCOCC3)nc3c2ncn3CCc2ccccc2)c1` [Example 18, (E)-4-(6-(2-(3-methylbenzylidene)hydrazinyl)-9-phenethyl-9H-purin-2-yl)morpholine], the “ADP-Glo kinase assay (%, 10 nM)” value at human GST-PIKFYVE is listed as 89.87%. The compound also yielded an IC50 at PIKFYVE of no more than 10 nM.

With `Cc1cccc(/C=N/Nc2nc(N3CCOCC3)nc3c2ncn3-c2ccccn2)c1` [Example 99, (E)-4-(6-(2-(3-methylbenzylidene)hydrazinyl)-9-(pyridin-2-yl)-9H-purin-2-yl)morpholine], the “ADP-Glo kinase assay (%, 10 nM)” value on human GST-PIKFYVE turned out to be 87.24%. The compound further had an IC50 against PIKFYVE of no more than 10 nM.

On to `Cc1cccc(/C=N/Nc2nc(N3CCOCC3)nc3c2ncn3-c2ccc(N(C)C)cc2)c1` [Example 123, (E)-N,N-dimethyl-4-(6-(2-(3-methylbenzylidene)hydrazinyl)-2-morpholino-9H-purin-9-yl)aniline], for which, at human GST-PIKFYVE, the “ADP-Glo kinase assay (%, 10 nM)” value is recorded as 84.48%. Besides, at PIKFYVE, the IC50 was no more than 10 nM.

Take `Cc1cccc(/C=N/Nc2nc(N3CCOCC3)nc3c2ncn3C2CCN(C(=O)c3cccnc3)CC2)c1` [Example 87, (E)-(4-(6-(2-(3-methylbenzylidene)hydrazinyl)-2-morpholino-9H-purin-9-yl)piperidin-1-yl)(pyridin-3-yl)methanone]: at human GST-PIKFYVE, the “ADP-Glo kinase assay (%, 10 nM)” value was determined as 63.65%. The compound further yielded an IC50 against PIKFYVE of 10 to 20 nM.

Regarding `Cc1cccc(/C=N/Nc2nc(N3CCOCC3)nc3c(-c4c(C)noc4C)cccc23)c1` [Example 210, (E)-4-(8-(3,5-dimethylisoxazol-4-yl)-4-(2-(3-methylbenzylidene)hydrazinyl)quinazolin-2-yl)morpholine], the “ADP-Glo kinase assay (%, 10 nM)” value at human GST-PIKFYVE stood at 65.10%. The IC50 against PIKFYVE was 20 to 30 nM.
